# Literature values as cited in US8268828B2, “Inhibitors of the chemokine receptor CxCR3” (Sanofi, priority 2008, dated 2012).
# Columns and labels:
# [1] = tested on: metastatic breast cancer
# [2] = tested on: Collagen Induced Arthritis (CIA); settings: CIA mice
SMILES,reduction of the number of metastases ([1]; mouse model of metastatic breast cancer) [%],direct effect on proliferation ([1]; tumor cells),classical picture of inflammation (swollen red joints in limbs) [2],leukocytic infiltration of joints ([2]; histologic evaluation)
CCOc1ccc(-n2c([C@@H](C)N(Cc3cccnc3)C(=O)Cc3ccc(OC(F)(F)F)cc3)nc3ncccc3c2=O)cc1 [AMG-487],60,no direct effect,,
Cc1ccc(-c2ccc3c(c2)C=C(C(=O)Nc2ccc(C[N+](C)(C)C4CCOCC4)cc2)CCC3)cc1.[Cl-] [TAK-779],,,ablated,blocked
